What all share (assay): growth of human tumour cells (NCI), 48 h
In assay [1] the test system is A498.
Assay [2] has as its system ACHN.
The test system of assay [3] is COLO 205.
For assay [4], the system named is HCT-116.
Assay [5] deals with HCT-15.
In assay [6] the test system is HL-60.
The test system of assay [7] is HOP-92.
In assay [8] the test system is Hs-578T.
In assay [9] the test system is IGROV-1.
Assay [10] deals with MCF7.
Assay [11] relates to MDA-MB-435.
For assay [12], the system named is MDA-N.
Assay [13] relates to MOLT-4.
In assay [14] the test system is Malme-3M.
For assay [15], the system named is OVCAR-5.
The test system of assay [16] is PC-3.
The subject of assay [17] is SF-539.
Assay [18] relates to SK-MEL-28.
The test system of assay [19] is UO-31.
The subject of assay [20] is TK-10.

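All cell lines were grown in 96-well plates and treated with compound for 48 hours. GI50 is the concentration that inhibits growth by half.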 Activity calls are given as the source filed them. Cut-off read from the data, not from the text of the source: active = GI50 up to about 1.1 µM and inactive = higher. Bounds are passed on as bounds.

For the compound `Oc1cc(-c2cccc3ccccc23)nc2ncccc12`, the GI50 in assay [1] is 0.0206 µM (active); in assay [2] it was 0.0325 µM (active); in assay [3], 0.0154 µM (active); in assay [4], 0.0261 µM (active); in [5] it was 0.00627 µM; in assay [6], 0.00401 µM (active). In addition, the GI50 in assay [7] was 0.434 µM (active); in [8] it was 0.0524 µM (active); in assay [9], 0.0611 µM (active); in [10], 0.00693 µM (active); in [11], 0.000865 µM (active); in [12] it was 0.00119 µM (active). Moreover, the GI50 in assay [13] is 0.0506 µM (active); in [14] it was 0.00225 µM (active); in assay [15], 0.0472 µM (active); in assay [16], 0.0182 µM (active); in assay [17], 0.0197 µM (active); in assay [18] it was 0.0546 µM (active). The GI50 in [19] was 0.0402 µM (active).

As to `COc1ncc(C#CC(=O)c2ccccc2OC)c(OC)n1`, the GI50 in assay [1] is 18.4 µM (inactive); in assay [2], 1.69 µM (inactive); in [3] it was 2 µM (inactive); in assay [4], 4.98 µM (inactive); in [5], 0.621 µM; in [6], 0.432 µM (active). The GI50 in assay [7] was 2.32 µM (inactive); in assay [8], 9.98 µM (inactive); in [9], 1.82 µM (inactive); in assay [10] it was 0.736 µM (active); in [11] it was 2.78 µM (inactive); in [12], 1.64 µM (inactive). Also, the GI50 was 0.386 µM (active) in assay [13]; 1.61 µM (inactive) in [14]; 3.41 µM (inactive) in [15]; 1.86 µM (inactive) in assay [16]; 2.86 µM (inactive) in assay [18]; 0.891 µM (active) in assay [20]. The GI50 in assay [19] was 1.55 µM (inactive).

Turning to `CC(C)(C(=O)N(C(=O)N1CCN(c2ccccc2)CC1)S(=O)(=O)c1ccccc1)c1ccc(Cl)cc1`, the GI50 in [1] is 18.6 µM (inactive); in assay [2] it was 19.5 µM (inactive); in assay [3] it was 20.7 µM (inactive); in assay [4], 17.7 µM (inactive); in assay [5], 7.94 µM; in assay [6] it was 24.8 µM (inactive). For the same compound, the GI50 in assay [7] was 5.43 µM (inactive); in assay [8] it was 39.1 µM (inactive); in [10], 4.33 µM (inactive); in [11], 51.2 µM (inactive); in assay [12], 41.5 µM (inactive); in assay [13], 3.33 µM (inactive). The GI50 was 90.4 µM (inactive) in assay [14]; 42.2 µM (inactive) in assay [15]; 12.6 µM (inactive) in assay [16]; 61.8 µM (inactive) in assay [17]; > 100 µM (inactive) in assay [18]; 61.4 µM (inactive) in assay [20]. Further, the GI50 in assay [19] is 15.3 µM (inactive).

In the case of `C=C(Cl)C(C)(Cl)CCC(Cl)C(C)C` (stereo not given), the GI50 was > 100 µM (inactive) in assay [1]; > 100 µM (inactive) in [2]; > 100 µM (inactive) in [3]; > 100 µM (inactive) in assay [4]; 44.3 µM (inactive) in [6]; 87.1 µM (inactive) in assay [7]. Moreover, the GI50 was > 100 µM (inactive) in assay [8]; > 100 µM (inactive) in assay [9]; > 100 µM (inactive) in assay [10]; > 100 µM (inactive) in assay [11]; 43.2 µM (inactive) in assay [12]; 36.7 µM (inactive) in assay [13]. For the same compound, the GI50 in assay [14], in assay [15], in assay [16], in assay [17], in assay [18] and in assay [20] was > 100 µM (inactive) each time. Further, the GI50 in [19] is > 100 µM (inactive).

With `CC(=O)OC1CC(O)CC2=CCC3C4CCC(C(C)(O)C(O)CC5COC(=O)C5C)C4(C)CCC3C21C` (stereo not given), the GI50 is > 25 µM (inactive) in assay [1]; > 25 µM (inactive) in assay [2]; > 25 µM (inactive) in assay [3]; 15.2 µM (inactive) in assay [4]; > 25 µM in assay [5]; 4.39 µM (inactive) in [6]. In addition, the GI50 in assay [7] is > 25 µM (inactive); in assay [8] it was 10.3 µM (inactive); in assay [9] it was > 25 µM (inactive); in assay [10] it was > 25 µM (inactive); in [11], > 25 µM (inactive); in [12], > 25 µM (inactive). Also, the GI50 in assay [13] was > 25 µM (inactive); in assay [15], > 25 µM (inactive); in assay [16], > 25 µM (inactive); in [17] it was > 25 µM (inactive); in assay [18], 24.5 µM (inactive); in [20], > 25 µM (inactive). For the same compound, in assay [19], the GI50 was 8.59 µM (inactive).

Take `CN(C)/C=C(\C(=O)c1ccccc1)n1nc(-c2ccccc2)cc1-c1ccccc1`: the GI50 is > 10 µM (inactive) in assay [1]; > 10 µM (inactive) in assay [2]; > 10 µM (inactive) in assay [3]; > 10 µM (inactive) in assay [4]; > 10 µM in assay [5]; > 10 µM (inactive) in assay [6]. In addition, the GI50 is 7.38 µM (inactive) in assay [7]; > 10 µM (inactive) in assay [8]; > 10 µM (inactive) in [9]; > 10 µM (inactive) in assay [10]; > 10 µM (inactive) in [11]; > 10 µM (inactive) in assay [12]. In addition, the GI50 in [13], in [14], in assay [15], in assay [16], in assay [17] and in assay [18] was > 10 µM (inactive) in each case. Besides, in assay [20], the GI50 is > 10 µM (inactive).

Regarding `COc1ccc2c(c1)-c1c(c3cc(OC)ccc3n1CCCN(C)C)CC2`, the GI50 in assay [1] is 13.4 µM (inactive); in [2], 14.3 µM (inactive); in [3] it was 2.02 µM (inactive); in [4] it was 5.2 µM (inactive); in assay [5], 11.4 µM; in [6] it was 15.3 µM (inactive). The GI50 was 12.2 µM (inactive) in assay [7]; 4.29 µM (inactive) in [8]; 2.93 µM (inactive) in [9]; 7.83 µM (inactive) in [10]; 5.55 µM (inactive) in [11]; 4.79 µM (inactive) in [12]. Besides, the GI50 was 5.93 µM (inactive) in assay [13]; 2.28 µM (inactive) in assay [14]; 13.8 µM (inactive) in assay [15]; 10.3 µM (inactive) in assay [16]; 5.78 µM (inactive) in assay [18]; 16.5 µM (inactive) in assay [20]. Besides, in assay [19], the GI50 was 10.8 µM (inactive).

With `COC(=O)CCc1ccc(CCC(=O)OC)cc1`, the GI50 in assay [1] is > 100 µM (inactive); in assay [2], > 100 µM (inactive); in assay [4], > 100 µM (inactive); in [5], > 100 µM; in assay [6], > 100 µM (inactive); in [7], > 100 µM (inactive). The GI50 in assay [8], in assay [9], in [10], in assay [11], in assay [12] and in assay [13] was > 100 µM (inactive) throughout. Further, the GI50 in [14], in assay [15], in [16], in assay [17], in assay [18] and in assay [20] was > 100 µM (inactive) throughout. Moreover, the GI50 in [19] is > 100 µM (inactive).

Turning to `C[C@@H]1CC[C@@]2(OC1)O[C@H]1[C@@H](O)[C@H]3[C@@H]4CC[C@H]5C[C@@H](O[C@@H]6O[C@H](CO)[C@H](O[C@@H]7O[C@H](CO)C(O)[C@H](O[C@@H]8OC[C@@H](O)[C@H](O)[C@H]8O)[C@H]7O[C@@H]7O[C@H](CO)[C@H](O)[C@H](O[C@@H]8O[C@H](CO)[C@@H](O)[C@H](O)[C@H]8O)[C@H]7O)[C@H](O)[C@H]6O)[C@H](O)C[C@]5(C)[C@H]4CC[C@]3(C)[C@H]1[C@@H]2C` (stereo not given in full) [DIGITONIN], the GI50 in [1] is 6.18 µM (inactive); in [2], 1.52 µM (inactive); in assay [3] it was 1.68 µM (inactive); in assay [4] it was 1.95 µM (inactive); in [5], 4.03 µM; in assay [6], 2.9 µM (inactive). The GI50 in assay [7] is 4.74 µM (inactive); in assay [8], 2.06 µM (inactive); in assay [9] it was 2.83 µM (inactive); in [10] it was 2.18 µM (inactive); in assay [11], 11.2 µM (inactive); in [12], 3.33 µM (inactive). Also, the GI50 in assay [13] was 3.9 µM (inactive); in assay [15], 2.07 µM (inactive); in [16] it was 2.57 µM (inactive); in assay [17] it was 2.98 µM (inactive); in assay [18], 2.61 µM (inactive); in assay [20], 2.49 µM (inactive). Besides, in [19], the GI50 is 1.94 µM (inactive).

Take `O=C1c2ccccc2/C(=N\c2ccc3ccccc3c2)C1(C1=C(c2ccccc2)/C(=N/c2ccc3ccccc3c2)c2ccccc21)c1ccccc1` (stereo not given): the GI50 in assay [1] was > 10 µM (inactive); in [2] it was 2.53 µM (inactive); in assay [3], 6.34 µM (inactive); in assay [4], 3.85 µM (inactive); in assay [5] it was 2.55 µM; in assay [6] it was 4.5 µM (inactive). Also, the GI50 was > 100 µM (inactive) in [7]; 23.2 µM (inactive) in assay [8]; 6.34 µM (inactive) in assay [9]; 4.05 µM (inactive) in assay [10]; 3.33 µM (inactive) in assay [11]; 3.89 µM (inactive) in assay [12]. Moreover, the GI50 was 2.58 µM (inactive) in assay [13]; > 57.8 µM (inactive) in assay [15]; 4.41 µM (inactive) in assay [16]; 6.15 µM (inactive) in assay [17]; 6.27 µM (inactive) in [18]; 45.5 µM (inactive) in [20]. Moreover, the GI50 in assay [19] was 4.65 µM (inactive).

Source of the values: ChEMBL document CHEMBL1201862, “PubChem BioAssay data set” (2004).
